From patent publication US20260234165A1, “MACROCYCLIC COMPOUNDS, PREPARATION METHOD THEREFOR, AND USE THEREOF” (GENFLEET THERAPEUTICS (SHANGHAI) INC., priority 2004, published 2026)

How the values were obtained:
Type in all cases: cell-based, human
[1] = tested on: p-ERK in NCI-H441 cells (KRAS G12V mutation); experiment: Cell p-ERK assay (HTRF) in NCI-H441 cells; details: NCI-H441 cells, 3 h compound incubation, HTRF p-ERK T202/Y204; read-out: H441 p-ERK IC50
Procedure, shortened: (§1)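 AsPC-1 (10000/well) or NCI-H441 (20000/well) cells were seeded in RPMI-1640 with 10% FBS, grown overnight, then exposed to 3.16-fold compound dilutions (0.1% DMSO) for 3 h at 37 °C. Lysates were read for phospho-ERK T202/Y204 by HTRF; IC50 came from four-parameter fits of inhibition versus DMSO and blank wells.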

[2] = tested on: p-ERK in AsPC-1 cells (KRAS G12D mutation); experiment: Cell p-ERK assay (HTRF) in AsPC-1 cells; details: AsPC-1 cells, 3 h compound incubation, HTRF p-ERK T202/Y204; read-out: AsPC-1 p-ERK IC50
Procedure, shortened: as §1

[3] = tested on: AsPC-1 cells (KRAS G12D mutation); experiment: 3D cell proliferation assay (CellTiter Glo-3D), AsPC-1; details: 3D cell proliferation (CellTiter Glo-3D), medium with 2% FBS, read-out: AsPC-1 AP IC50
Procedure, shortened: (§2)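 Cells were seeded at 800 per well in RPMI-1640 containing 2% FBS and left overnight. Compounds in 3.16-fold dilution series were then added at 0.1% DMSO and incubated 5 days at 37 °C. Viability was read by CellTiter-Glo 3D luminescence and IC50 values fitted by four-parameter regression.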

[4] = tested on: NCI-H441 cells; experiment: 3D cell proliferation assay (CellTiter Glo-3D), NCI-H441; details: 3D cell proliferation (CellTiter Glo-3D), medium with 2% FBS, read-out: H441 AP IC50
Procedure, shortened: as §2

| IC50 [1] [pM] | IC50 [2] [pM] | IC50 [3] [pM] | IC50 [4] [pM] | Compound |
| --- | --- | --- | --- | --- |
| 270 | 190 | 240 | 110 | CCn1c(-c2cc(C#CCN3CCCOCC3)c[n+]([O-])c2[C@H](C)OC)c2c3cc(ccc31)-c1csc(n1)C[C@H](NC(=O)[C@H]1[C@H](C)[C@@H]1C)C(=O)N1CCC[C@H](N1)C(=O)OCC(C)(C)C2 (atropisomer, axis not shown; (Ra)) [Compound Z914-1, 5-(3-(1,4-oxazepan-4-yl)prop-1-yn-1-yl)-(Ra)-3-((6^3S,4S,Z)-4-((1r,2R,3S)-2,3-dimethylcyclopropane-1-carboxamido)-1^1-ethyl-10,10-dimethyl-5,7-dioxo-6^1,6^2,6^3,6^4,6^5,6^6-hexahydro-1^1H-8-oxa-2(4,2)-thiazola-1(5,3)-indola-6(1,3)-pyridazinacycloundecaphane-12-yl)-2-((S)-1-methoxyethyl)pyridine-1-oxide] |
| 37700 | 93000 | 97200 | 42600 | (1S,2R,3S)—N-((6^3S,4S,Z)—(Ra)-1^2-(5-(2-(4-oxa-7-azaspiro[2,5]octan-7-yl)ethoxy)-2-((S)-1-methoxyethyl)pyridin-3-yl)-11-ethyl-10,10-dimethyl-5,7-dioxo-6^1,6^2,6^3,6^4,6^5,6^6-hexahydro-1^1H-8-oxa-2(4,2)-thiazola-1(5,3)-indola-6(1,3)- pyridazinacycloundecaphane-4-yl)-2-methyl-3-(pyrimidin-4-yl)cyclopropane-1-carboxamide [Compound Z661-1] |
| 580 | 800 | 620 | 650 | CCn1c(-c2cc(C#C[C@@H]3CCCN3C)cnc2[C@H](C)OC)c2c3cc(ccc31)-c1csc(n1)C[C@H](NC(=O)[C@H]1[C@H](C)[C@@H]1C)C(=O)N1CCC[C@H](N1)C(=O)OCC(C)(C)C2 (atropisomer, axis not shown; (Ra)) [Compound Z598, (1r,2R,3S)—N-((6^3S,4S,Z)—(Ra)-1^1-ethyl-12-(2-((S)-1-methoxyethyl)-5-(((S)-1-methylpyrrolidin-2-yl)ethynyl)pyridin-3-yl)-10,10-dimethyl-5,7-dioxo-6^1,6^2,6^3,6^4,6^5,6^6-hexahydro-1^1H-8-oxa-2(4,2)-thiazola-1(5,3)-indola-6(1,3)-pyridazinacycloundecaphane-4-yl)-2,3-dimethylcyclopropane-1-carboxamide] |
| 310 | 310 | 880 | 510 | CCn1c(-c2cc(N3CCN4CCOC[C@@H]4C3)cnc2[C@H](C)OC)c2c3cc(ccc31)-c1csc(n1)C[C@H](NC(=O)[C@H]1[C@H](C)[C@@H]1C)C(=O)N1CCC[C@H](N1)C(=O)OCC(C)(C)C2 [Compound Z72] |
| 110 | 320 | 780 | 210 | CCn1c(-c2cc(OCCN3CCS(=O)(=O)C(C)(C)C3)cnc2[C@H](C)OC)c2c3cc(ccc31)-c1csc(n1)C[C@H](NC(=O)[C@H]1C[C@@H]1C)C(=O)N1CCC[C@H](N1)C(=O)OCC(C)(C)C2 (atropisomer, axis not shown; (Ra)) [Compound Z665] |
